# Experimental data reported in patent US8399417B2, “Food” (Ajinomoto Co., Inc., priority 2007, dated 2013).
# Starred links: 1 amine or outer side, 2 acyl side, 3 side chain; linkers in the order of their positions; H or OH if unused. Non-standard residues stand in square brackets, D forms with d. No end group written: not given here. γGlu = O=C(O)[C@H](CCC(=O)[*:2])N[*:1]; Orn = NCCC[C@H](N)C(=O)O
# Columns and labels:
# [1] = molecular target: T1, human calcium receptor (Homo sapiens, UniProt P41180); assay: Calcium receptor-activating effect: Ca ion concentration-dependent Cl ionic current in Xenopus laevis oocyte expression system; type: cell-based; conditions: for Activity (lowest concentration at which current was detected): peptide added at 1,000 to 0.1 μM to potential-clamped oocytes, Table 1
# T1 construct: expressed in transfected cells; host or cells: Xenopus laevis oocytes injected with cRNA; the gene was PCR-cloned from human kidney cDNA (Clontech) into pBR322
# T1 sequence (P41180 20-1078): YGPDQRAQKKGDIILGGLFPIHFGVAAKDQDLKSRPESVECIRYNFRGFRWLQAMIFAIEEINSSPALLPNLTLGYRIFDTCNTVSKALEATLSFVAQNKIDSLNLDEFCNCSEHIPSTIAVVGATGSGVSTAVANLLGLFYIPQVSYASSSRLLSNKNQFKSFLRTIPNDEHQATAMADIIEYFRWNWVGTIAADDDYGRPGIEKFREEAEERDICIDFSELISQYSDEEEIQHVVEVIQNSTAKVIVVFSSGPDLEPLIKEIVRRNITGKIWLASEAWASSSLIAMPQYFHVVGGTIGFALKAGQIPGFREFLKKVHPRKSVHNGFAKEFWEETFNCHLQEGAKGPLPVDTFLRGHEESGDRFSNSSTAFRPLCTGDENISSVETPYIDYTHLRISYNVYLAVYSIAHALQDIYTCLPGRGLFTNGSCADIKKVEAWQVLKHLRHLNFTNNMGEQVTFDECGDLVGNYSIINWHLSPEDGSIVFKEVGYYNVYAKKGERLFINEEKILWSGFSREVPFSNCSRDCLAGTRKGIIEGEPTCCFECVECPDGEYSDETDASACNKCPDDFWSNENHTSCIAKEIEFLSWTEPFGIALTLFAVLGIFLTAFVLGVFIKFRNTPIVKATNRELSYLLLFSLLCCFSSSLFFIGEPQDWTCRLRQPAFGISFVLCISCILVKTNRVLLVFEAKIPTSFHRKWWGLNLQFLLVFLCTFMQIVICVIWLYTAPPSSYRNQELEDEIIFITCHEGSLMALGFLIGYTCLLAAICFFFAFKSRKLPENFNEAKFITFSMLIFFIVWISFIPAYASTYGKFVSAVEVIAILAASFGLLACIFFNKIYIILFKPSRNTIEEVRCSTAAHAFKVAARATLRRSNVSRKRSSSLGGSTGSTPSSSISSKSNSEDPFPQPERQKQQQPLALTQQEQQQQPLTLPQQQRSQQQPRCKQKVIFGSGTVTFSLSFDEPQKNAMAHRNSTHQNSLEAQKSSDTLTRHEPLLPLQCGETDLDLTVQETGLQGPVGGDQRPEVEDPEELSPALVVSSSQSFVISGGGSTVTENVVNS
# Protocol: For evaluation of the calcium receptor-activating effect, a Ca ion concentration-dependent Cl ionic current measuring method using a Xenopus laevis oocyte expression system was used. If each activator is added to Xenopus laevis oocytes expressing the calcium receptor, intracellular Ca ions increase. Then, the Ca ion concentration-dependent Cl channel opens, and the intracellular current value changes as an ionic current. By measuring the change in the intracellular current value, whether the calcium receptor-activating effect is present or not can be determined.
# Specifically, the abdomen of Xenopus laevis was opened, and an egg batch was taken out and then treated with a 1% collagenase solution at 20° C. for 2 hours to obtain individual oocytes. Into the oocytes, 50 nl of 1 μg/μl receptor cRNA or 50 nl of sterilized water per oocyte were injected by using a micro glass capillary, and the oocytes were cultured at 18° C. for 2 to 3 days. For the culture, a solution obtained by adding 2 mM pyruvic acid, 10 U/ml penicillin, and 10 μg/ml streptomycin to the solution in Reference Example 2 was used. After the culture, a test solution was added to the oocytes injected with cRNA or sterilized water. Electrophysiological measurement was performed by using an amplifier Geneclamp 500 (manufactured by Axon) and recording software AxoScope 9.0 (manufactured by Axon). The oocytes were membrane potential-clamped at −70 mV by the double electrode potential clamp method, and the intracellular current via the Ca ion concentration-dependent Cl ion was measured. The maximum value of the intracellular current was defined as the response current value.
# The calcium receptor-activating effect of L-amino acids was evaluated by using the method described in Reference Example 6. That is, oocytes injected with cRNA of the calcium receptor or sterilized water were prepared, and membrane potential-clamped at −70 mV by the double electrode potential clamp method. To the potential-clamped oocytes, alanine (10 mM), arginine (10 mM), asparagine (10 mM), aspartic acid (10 mM), cysteine (10 mM), glutamine (10 mM), glutamic acid (10 mM), glycine (10 mM), histidine (10 mM), isoleucine (10 mM), leucine (10 mM), lysine (10 mM), methionine (10 mM), phenylalanine (10 mM), proline (10 mM), serine (10 mM), threonine (10 mM), tryptophan (10 mM), tyrosine (10 mM), valine (10 mM), ornithine (10 mM), taurine (10 mM), or hydroxyproline (10 mM) was added, and Ca ion concentration-dependent Cl response current was measured. […] 25, 2000, 97(9): 4814-9.
# The calcium receptor-activating effect of D-cysteine was evaluated by using the method described in Reference Example 6. That is, oocytes injected with cRNA of the calcium receptor or sterilized water were prepared, and membrane potential-clamped at −70 mV by the double electrode potential clamp method. To the potential-clamped oocytes, D-cysteine (10 mM), L-cysteine (10 mM), D-tryptophan (10 mM), or L-tryptophan (10 mM) was added, and Ca ion concentration-dependent Cl response current was measured.
# The calcium receptor-activating effect of a peptide was evaluated by using the method described in Reference Example 6. That is, oocytes injected with cRNA of the calcium receptor or sterilized water were prepared, and membrane potential-clamped at −70 mV by the double electrode potential clamp method.
# The calcium receptor-activating effects of peptides were evaluated in the same manner as that of Reference Example 10. Each of the peptides shown in Table 1 was added to potential-clamped oocytes at 1,000 μM, 300 μM, 100 μM, 30 μM, 10 μM, 3 μM, 1 μM, 0.3 μM, and 0.1 μM, and Ca ion concentration-dependent Cl response current was measured.
# [2] = Kokumi-imparting activity intensity, quantitative sensory evaluation test; type: in vivo, human; conditions: 0.1 g/dl; for Kokumi intensity, Aftertaste / Kokumi intensity, Initial and middle taste: control 0, glutathione 3 points
# Protocol: The quantitative sensory evaluation test was performed as follows. […] It should be noted that a sample, which became acidic after the sample had been dissolved, was adjusted with NaOH to pH 6.8 to 7.2 before use. […] The test was performed with n=3 based on the following sensory evaluation scores: control (0 point) and glutathione addition (3 points).
# The quantitative sensory evaluation test was performed as follows. […] It should be noted that a sample, which became acidic after the sample had been dissolved, was adjusted with NaOH to pH 6.8 to 7.2 before use. The test was performed with n=5 based on the following sensory evaluation scores: control (0 point) and glutathione addition (3 points).
# The quantitative sensory evaluation test was performed as follows. […] It should be noted that a sample, which became acidic after the sample had been dissolved, was adjusted with NaOH to pH 6.8 to 7.2 before use. The test was performed with n=12 based on the following sensory evaluation scores: control (0 point) and glutathione addition (3 points).
# [3] = sodium glutamate, inosine monophosphate, sodium chloride solution, n=3, Table 3
molecule,measurement,setting,value
[γGlu]-[γGlu]-Val,Activity (lowest concentration at which current was detected),[1],"1,000 μM"
γ-Glu-t-Leu,Activity (lowest concentration at which current was detected),[1],100 µM
[γGlu]-Thr,calcium receptor-activating effect (Cl response current),"[1]; peptide 50 μM, FIG. 4",definite calcium receptor-activating effect
[γGlu]-Val-Pro,Activity (lowest concentration at which current was detected),[1],30 µM
"N[C@@H](Cc1ccc(O)cc1)C(=O)O [tyrosine, reference compound]",calcium receptor-activating effect (Cl response current),"[1]; L-amino acid 10 mM, FIG. 2",definite calcium receptor-activating effect
[γGlu]-Val-Cys,Activity (lowest concentration at which current was detected),[1],10 µM
[γGlu]-Ser-Gly,Activity (lowest concentration at which current was detected),[1],30 µM
[γGlu]-Val-Met,Activity (lowest concentration at which current was detected),[1],"1,000 μM"
[γGlu]-Cys,"Kokumi intensity, Aftertaste","[2]; n=5, Table 4",2.0 points
same,"Kokumi intensity, Initial and middle taste","[2]; n=5, Table 4",2.0 points
same,calcium receptor-activating effect (Cl response current),"[1]; peptide 50 μM, FIG. 4",definite calcium receptor-activating effect
"N[C@@H](Cc1c[nH]c2ccccc12)C(=O)O [tryptophan, reference compound]",calcium receptor-activating effect (Cl response current),"[1]; L-amino acid 10 mM, FIG. 2",definite calcium receptor-activating effect
[γGlu]-Val-Phe,Activity (lowest concentration at which current was detected),[1],30 µM
[γGlu]-Met,Taste profile,"[2]; n=3, Table 3",Thickness and growth are slightly
same,"Kokumi intensity, Aftertaste","[2]; n=3, Table 3",0.4 points
same,"Kokumi intensity, Initial and middle taste",[2]; [3],1.5 points
same,calcium receptor-activating effect (Cl response current),"[1]; peptide 500 μM, FIG. 4",definite calcium receptor-activating effect
[γGlu]-Val-Gln,Activity (lowest concentration at which current was detected),[1],10 µM
γ-Glu-Orn,calcium receptor-activating effect (Cl response current),"[1]; peptide 500 μM, FIG. 4",definite calcium receptor-activating effect
"N[C@@H](CS)C(=O)O [cysteine, reference compound]",calcium receptor-activating effect (Cl response current),"[1]; L-amino acid 10 mM, FIG. 2",definite calcium receptor-activating effect
[γGlu]-Val,"Kokumi intensity, Aftertaste","[2]; n=3, Table 3",1.0 points
same,"Kokumi intensity, Aftertaste","[2]; n=5, Table 4",1.0 points
same,"Kokumi intensity, Initial and middle taste","[2]; n=5, Table 4",3.0 points
same,"Kokumi intensity, Initial and middle taste",[2]; [3],3.0 points
same,calcium receptor-activating effect (Cl response current),"[1]; peptide 50 μM, FIG. 4",definite calcium receptor-activating effect
N[C@@H](CCC(=O)N[C@@H](CSN=O)C(=O)NCC(=O)O)C(=O)O [γ-Glu-Cys(SNO)-Gly],calcium receptor-activating effect (Cl response current),"[1]; peptide 50 μM, FIG. 4",definite calcium receptor-activating effect
γ-Glu-Val-Asp,Activity (lowest concentration at which current was detected),[1],"1,000 μM"
[γGlu]-Val-Ser,Activity (lowest concentration at which current was detected),[1],30 µM
γ-Glu-Cys(S-allyl)-Gly,Activity (lowest concentration at which current was detected),[1],100 µM
Gly-Cys,calcium receptor-activating effect (Cl response current),"[1]; peptide 500 μM, FIG. 4",definite calcium receptor-activating effect
Cys-Met,calcium receptor-activating effect (Cl response current),"[1]; peptide 1 mM, FIG. 4",definite calcium receptor-activating effect
[γGlu]-Gly,calcium receptor-activating effect (Cl response current),"[1]; peptide 500 μM, FIG. 4",definite calcium receptor-activating effect
[γGlu]-Val-Lys,Activity (lowest concentration at which current was detected),[1],"1,000 μM"
[γGlu]-Val-Arg,Activity (lowest concentration at which current was detected),[1],"1,000 μM"
γ-Glu-Cys(S-Me)-Gly,Activity (lowest concentration at which current was detected),[1],3 µM
Asp-Gly,calcium receptor-activating effect (Cl response current),"[1]; peptide 1 mM, FIG. 4",definite calcium receptor-activating effect
[γGlu]-Val-His,Activity (lowest concentration at which current was detected),[1],100 µM
[γGlu]-Val-Asn,Activity (lowest concentration at which current was detected),[1],30 µM
[γGlu]-Val-Thr,Activity (lowest concentration at which current was detected),[1],"1,000 μM"
[γGlu]-Val-Glu,Activity (lowest concentration at which current was detected),[1],"1,000 μM"
[γGlu]-Gly-Gly,Activity (lowest concentration at which current was detected),[1],30 µM
[γGlu]-Val-Val,Activity (lowest concentration at which current was detected),[1],"1,000 μM"
[γGlu]-Ala,"Kokumi intensity, Aftertaste","[2]; n=3, Table 3",0.2 points
same,"Kokumi intensity, Initial and middle taste",[2]; [3],0.5 points
same,calcium receptor-activating effect (Cl response current),"[1]; peptide 50 μM, FIG. 4",definite calcium receptor-activating effect
N[C@H](CS)C(=O)O [D-cysteine],calcium receptor-activating effect (Cl response current),"[1]; D-amino acid 10 mM, FIG. 3",definite calcium receptor-activating effect
Leu-Asp,calcium receptor-activating effect (Cl response current),"[1]; peptide 1 mM, FIG. 4",definite calcium receptor-activating effect
Glu-Cys,calcium receptor-activating effect (Cl response current),"[1]; peptide 50 μM, FIG. 4",definite calcium receptor-activating effect
"N[C@@H](Cc1c[nH]cn1)C(=O)O [histidine, reference compound]",calcium receptor-activating effect (Cl response current),"[1]; L-amino acid 10 mM, FIG. 2",definite calcium receptor-activating effect
"N[C@@H](Cc1ccccc1)C(=O)O [phenylalanine, reference compound]",calcium receptor-activating effect (Cl response current),"[1]; L-amino acid 10 mM, FIG. 2",definite calcium receptor-activating effect
[γGlu]-Val-[Orn],Activity (lowest concentration at which current was detected),[1],100 µM
Cys-Gly,calcium receptor-activating effect (Cl response current),"[1]; peptide 1 mM, FIG. 4",definite calcium receptor-activating effect
γ-Glu-Tau,Activity (lowest concentration at which current was detected),[1],300 µM
